Results on one molecule are retold here after US12616753B2, “HSP70 inhibitors and methods of using same” (THE WISTAR INSTITUTE, priority 2020, dated 2026).

Series [1] has as its system MC38 and CT26. The experiment in a line: Alamar Blue cell viability assay, mouse CRC cell lines. The format is cell-based. The note with it: 72 hours. The procedure: (§1) FIGS. 5A-5F show AP-4-139B is efficacious against CRC in an immunocompetent model, and causes immune cell recruitment. FIGS. 5A-5B: Mouse CRC cell lines, MC38 (FIG. 5A) and CT26 (FIG. 5B), were plated at a density of 1,000 cells per well in 96-well plates. The next day, cells were treated with the indicated inhibitors for 72 hours. Cells were then subjected to the Alamar Blue cell viability assays. Shown are representative IC50 values of an average of six technical replicates and two biological replicates. FIG. 5C: Mouse CRC cell lines MC38 and CT26 were treated with 10 μM AP-4-139B for 24 or 48 hours and immunoblotted for HSP70, p53, AKT, Cleaved Lamin A (CLA), Cleaved Caspase 3, MRPS14, and GAPDH (loading control). The doublet detected for HSP70 is seen in other murine cell lines, and may represent a degradation product or post-translational modification. FIG. 5D: 1×10^6 MC38 cells were injected subcutaneously into the right flank of 6-8 week old male C57Bl/6 mice. Once tumors reached an approximate volume of 50 mm^3, mice were separated randomly into two groups: vehicle vs. AP-4-139B. Mice were treated with 10 mg/kg AP-4-139B every 48 hours. All mice were euthanized 20 days after the start of treatment. Tumor volumes were recorded using digital calipers and using the formula v=length×width^2×0.52. *** p<0.001. n=15 mice per group.
(In general: Resazurin is reduced to fluorescent resorufin, in cell work by metabolically active cells.)

Series [2] relates to MC38 tumors. The experiment in a line: Syngeneic model of MC38 tumors in C57Bl/6 mice. Type of series: in vivo, mouse. The following applies: 10 mg/kg every 48 hours. The method, then: as §1
FIG. 5E: Immunohistochemistry (IHC) analysis of MC38 tumors treated with AP-4-139B. Shown are representative images (4-6 random fields of view per condition from four independent tumors) of CD8^+ T cells and Granzyme B (marker for activated immune cells). Respective IgG antibody was used as the negative control. Scale bars=100 μm. FIG. 5F: Quantification of FIG. 5E * p<0.05; ** p<0.01.
FIG. 9A: Body weights of mice injected with HT-29 tumor xenografts. Weights were measured at the start of the treatment to determine mouse toxicity. n.s. not significant, n=15 mice per group. FIG. 9B: Immunohistochemistry (IHC) analysis of MC38 tumors treated with AP-4-139B. Shown are representative images (4-6 random fields of view per condition from four independent tumors) of CD4^+ T cells. Respective IgG antibody was used as the negative control. Scale bars=100 μm. FIG. 9C: Quantification of FIG. 9B.
All studies were carried out in accordance with the recommendations in the Guide for the Care and Use of Laboratory Animals of the National Institutes of Health (NIH). All protocols were approved by The Wistar Institute Institutional Animal Care and Use Committee (IACUC). […] Tumor volumes were measured using digital calipers and tumor volume was calculated using the formula: volume=(length×width^2)×0.52. All mice were monitored daily for signs of pain or distress.

In series [3] the test system is MC38 and HT-29 cells. The experiment in a line: Extracellular ATP release (CellTiter-Glo). Type of series: cell-based. The procedure:
FIG. 6A: 1×10^6 MC38 cells were injected subcutaneously into the right flank of 6-8-week-old male C57Bl/6 mice. Once tumors reached an approximate volume of 100 mm^3, mice were treated with AP-4-139B (10 mg/kg) every 48 hours. 20 days after the start of treatment, tumors were excised, weighed, minced and digested. Tumor-infiltrating and splenic conventional CD4 (cCD4) (Live CD45^+ DUMP^− CD3^+CD4^+Foxp3^−), Tregs (Live CD45^+ DUMP^− CD3^+CD4^+Foxp3^+), CD8 (Live CD45^+ DUMP^− CD3^+CD8^+) T-cells, and Dendritic Cells (Live CD45^+ DUMP^− CD3^−CD11c^+MHCII^+) numbers were assessed by flow cytometry. * p<0.05, n.s. not significant. n=8 mice per group. FIG. 6B: MC38 and HT-29 cells were treated with the indicated concentrations of AP-4-139B for either 8 or 24 hours; media was collected and subjected to WB for HMGB1. Data shown are representative of three technical replicates. FIG. 6C: MC38 and HT-29 cells were treated with the indicated concentrations of AP-4-139B for three hours and then assayed for extracellular ATP release. Each graphical representation indicates the mean±the standard deviation of three independent experiments relative to control (DMSO-treated) cells.
FIG. 6D: MC38 cells were treated with 5 μM AP-4-139B for 24 hours and subjected to flow cytometry, using Alexa488-tagged calreticulin antibody. *** p<0.001, n=4 biological replicates performed in duplicate. FIG. 6E: MC38 cells were treated with increasing concentrations of AP-4-139B, G-TPP, 17-AAG or Metformin for 3 hours and then assayed for extracellular ATP release. Three independent cultures were assayed for each treatment, and DMSO-treated cells were used as internal controls. Error bars represent standard deviation (SD).
The XF Cell Mito Stress Test was performed. Briefly, HT-29 (10,000 cells/well), IMR90 (15,000 cells/well), and 1205Lu (15,000 cells/well) were plated in Seahorse 96-well cell culture microplates, treated with the respective inhibitors for 24 hours, and subjected to the Seahorse XF Cell Mito Stress Test, according to the manufacturer's protocol (Agilent Technologies). For extracellular HMGB1 release, 1×10^6 MC38 cells were plated in 10-cm dishes. The next day, cells were treated with the indicated concentrations of AP-4-139B for 8 or 24 hours in serum-free media. Media was collected and spun down at 2,000 rpm for 5 minutes to pellet any remaining cells or debris. Media was then transferred to Amicon Ultra 15, 10K tubes and spun down at 4,000 rpm for 45 minutes, according to the manufacturer's protocol. […] For extracellular ATP release, ATP was measured using the CellTiter-Glo Kit (Promega catalog #G7570). […] 10 μl of CellTiter-Glo Reaction Mix was then mixed with 10 μl of culture media; the luminescence signal was detected using a luminometer.

Turning to `c1ccc(-c2cn3nc(CCCCCC[P+](c4ccccc4)(c4ccccc4)c4ccccc4)sc3n2)cc1` [AP-4-139B, Triphenyl(6-(6-phenylimidazo[2,1-b][1,3,4]thiadiazol-2-yl)hexyl)phosphonium bromide], the “IC50s in murine CRC lines (in words)” value in series [1] is “comparable to that of oxaliplatin”. Further, in series [2], the “CD4+ T cells in tumors (IHC)” value is given as “increase in CD4+ T cells”, the “infiltrating CD8+ T cells in tumors (IHC)” value is listed as “large percentage of infiltrating CD8^+ T cells” and the “weight loss of mice during treatment” value is given as “no evidence of weight loss”. The “efficacy in syngeneic MC38 tumors” value in series [2] (p<0.001) is “significant efficacy as a single agent”. Further, in series [3] (MC38 and HT-29, three hours), the ATP release entry is on record as “ATP release”. In addition, the “ATP release, comparison of compounds” value in series [3] (MC38 cells, increasing concentrations, 3 hours) is recorded as “most significant release of ATP”.
